This is an account of results in ChEMBL document CHEMBL5385865, “Discovery and optimization of 2-(trifluoromethyl)benzimidazole derivatives as novel ferroptosis inducers in vitro and in vivo” (Eur J Med Chem, 2023).

Calls of active or inactive are those of the source. The rule behind the calls is not given here.

Usually IC50 stands for the concentration at which inhibition is half-maximal.

Data set [1] deals with HT-1080. As to the kind of experiment: Induction of ferroptosis in human HT-1080 cells assessed as cell death at 10 uM incubated for 24 hrs in presence of Fer-1 by MTT assay. It is filed as functional, cell-based. For orientation: Tetrazolium assays rely on reduction of a dye to a coloured formazan, in cell work by metabolically active cells.
The nature of data set [2]: Toxicity in BALB/c nude mouse xenografted with human HepG2 cells assessed as histological change in lung at 15 to 30 mg/kg, ip administered every other day for 21 days by H and E staining based analysis. It is filed as organism-based. The note with it: in vivo, 504 h, dose 15-30 mg/kg, time 21 day.
In a further data set the test system is 786-0. Put plainly: Lethality in human 786-0 cells assessed as decrease in cell viability at 10 uM incubated for 48 hrs by MTT assay. It is filed as functional, cell-based.
A short description of data set [3]: Toxicity in BALB/c nude mouse xenografted with human HepG2 cells assessed as effect on serum CREA level at 15 to 30 mg/kg, ip administered every other day for 21 days. It is filed as organism-based. The settings on record: in vivo, 504 h, dose 15-30 mg/kg, time 21 day. In general terms: Xenograft models place foreign cells or tissue in a host animal.
Data set [4] deals with HT-1080. As to the kind of experiment: Effect on GPX4 mRNA level in human HT-1080 cells at 0.5 to 5 uM incubated for 18 hrs by qPCR analysis. It is filed as functional, cell-based. The settings on record: dose 0.5-5 µM. A general note: Real-time PCR tracks product formation cycle by cycle.
Data set [5] deals with HT-1080. Put plainly: Induction of ferroptosis in human HT-1080 cells assessed as cell death at 10 uM incubated for 24 hrs in presence of DFO by MTT assay. It is filed as functional, cell-based.
Data set [6] concerns HT-1080. Put plainly: Induction of ferroptosis in human HT-1080 cells assessed as cell death at 10 uM incubated for 24 hrs in presence of Trolox by MTT assay. It is filed as functional, cell-based.
Data set [7] deals with HT-1080. Put plainly: Induction of ferroptosis in human HT-1080 cells assessed as increase in CHAC1 mRNA level incubated for 6 hrs by qPCR analysis. The settings on record: dose 0.5-5 µM. It is filed as functional, cell-based.
The test system of data set [8] is HT-1080. Put plainly: Induction of ferroptosis in human HT-1080 cells assessed as increase in lipid ROS accumulation at 0.5 to 5 uM incubated for 10 hrs by flow cytometry. It is filed as functional, cell-based. The note with it: dose 0.5-5 µM.
Data set [9] in a line: Toxicity in BALB/c nude mouse xenografted with human HepG2 cells assessed as effect on serum UREA level at 15 to 30 mg/kg, ip administered every other day for 21 days. It is filed as organism-based. The settings on record: in vivo, 504 h, dose 15-30 mg/kg, time 21 day.
Data set [10] can be described thus: Toxicity in human NCM460 cells upto 20 uM incubated for 48 hrs by MTT assay. The settings on record: ncm460, 48 h. It is filed as cell-based.
The test system of data set [11] is HT-1080. As to the kind of experiment: Induction of ferroptosis in human HT-1080 cells assessed as cell death at 5 uM incubated for 6 hrs in presence of ferric citrate by fluorescent microscopy. It is filed as functional, cell-based.
For data set [12], the system named is HT-1080. As to the kind of experiment: Induction of ferroptosis in human HT-1080 cells assessed as cell death at 5 uM incubated for 24 hrs in presence of beta-mercaptoethanol by MTT assay. It is filed as functional, cell-based.
The next data set deals with HeLa. As to the kind of experiment: Lethality in human HeLa cells assessed as inhibition of cell viability incubated for 24 hrs by MTT assay. It is filed as functional, cell-based.

Take `CN(C)S(=O)(=O)c1ccc(N2CCC(Cn3c(C(F)(F)F)nc4ccccc43)CC2)cc1`: the result with HT-1080 [1], in the data set on HT-1080 [4], in the data set with HT-1080 [5], in the data set with HT-1080 [6] and with HT-1080 [12] was inactive. For the same molecule, the Activity result in data set [2] is “Non-Toxic”; in data set [3], “Non-Toxic”; with HT-1080 [7] it was “Dose-Dependent Effect”; in data set [9], “Non-Toxic”; in data set [10] it was “Non-Toxic”. In addition, the outcome in the data set on 786-0, in the data set with HT-1080 [8] and in the data set with HT-1080 [11] was Active. In addition, in the data set on HeLa, the IC50 turned out to be 1910 nM.
